Experimental data reported in PubChem BioAssay (NCI).
Several values for one entry are separate records, joined by “and”; a condition that tells them apart may be missing. Equal entries are not always repeated.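 Five compound concentrations were applied to cells in 96-well plates for 48 hours; endpoints were derived by simple linear interpolation of the resulting dose-response curve. Abbreviation: GI50, concentration required for 50% inhibition of growth. TGI denotes the concentration required for complete inhibition of growth.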

Tests used:
Assay in all cases: NCI-60 cell line screen, 48 h
MALME-3M melanoma = test system: MALME-3M melanoma
SF-268 CNS = test system: SF-268 CNS
ACHN renal = test system: ACHN renal
OVCAR-8 ovarian = test system: OVCAR-8 ovarian
UO-31 renal = test system: UO-31 renal
K-562 leukemia = test system: K-562 leukemia
NCI/ADR-RES ovarian = test system: NCI/ADR-RES ovarian
CCRF-CEM leukemia = test system: CCRF-CEM leukemia
PC-3 prostate = test system: PC-3 prostate
COLO 205 colon = test system: COLO 205 colon
SNB-75 CNS = test system: SNB-75 CNS

SMILES | TGI (MALME-3M melanoma) [µM] | TGI (SF-268 CNS) [µM] | TGI (ACHN renal) [µM] | TGI (OVCAR-8 ovarian) [µM] | TGI (UO-31 renal) [µM] | TGI (K-562 leukemia) [µM] | TGI (NCI/ADR-RES ovarian) [µM] | TGI (CCRF-CEM leukemia) [µM] | TGI (PC-3 prostate) [µM] | TGI (COLO 205 colon) [µM] | TGI (SNB-75 CNS) [µM] | GI50 (SNB-75 CNS)
Cc1nc2n(c1/C=C1/C(=O)Nc3ccccc31)CCS2 | > 100 | > 100 | > 100 | > 100 | > 100 | > 100 | > 100 | > 100 | > 100 | 47.6 | 87 | 
O=C1CC(C(CC(=O)c2ccccc2)c2ccccc2)C(=O)c2ccccc2N1 (centres undefined) | > 100 | > 100 | > 100 | > 100 | 40.4 | > 100 | 75.5 | > 100 | > 100 | > 100 | > 100 | 
O=S(=O)(c1ccc(-c2nnc(-c3ccc(F)cc3)o2)cc1)c1ccc(-c2nnc(-c3ccc(F)cc3)o2)cc1 | > 100 | > 100 | 46.8 | > 100 | > 100 | > 100 | > 100 | > 100 | > 100 | > 100 | 26 | 
COCC1OC(S(=O)(=O)c2ccccc2)C(O)C(OC)C1OC (centres undefined) | > 100 | > 100 | > 100 | > 100 | > 100 | > 100 | > 100 | > 100 | > 100 | > 100 | > 100 | > 100 µM and 12.1 µM
CC(C)(C)CC(C)(C)NC(=S)NO | > 100 | > 100 | > 100 | > 100 | > 100 | > 100 | > 100 | > 100 | > 100 | > 100 | > 100 | 
C=C[C@@]1(O)CCCC[C@@H]1CC(Sc1ccccc1)Sc1ccccc1 | 28 | 29 | > 100 | 34.1 | 32.2 | > 100 | 39.7 | > 100 | 29.1 | 32.3 | 27.8 | 
O=[N+]([O-])c1ccc2oc(=Nc3ccccc3)c(Nc3ccccc3)nc2c1 | > 100 | > 100 | > 100 | > 100 | > 100 | > 100 | > 100 | > 100 | > 100 | > 100 | 79.6 | 
Oc1ccccc1C1C=C(c2ccccc2)NC(N2CCCCC2)=C1c1nc2ccccc2[nH]1 (centres undefined) | 29.6 | 27.5 | 47.7 | 30.9 | 23.7 | > 100 | 34 | 47.7 | 24.5 | 5.81 | 18.3 | 
Cc1ccnc2nc(N)ccc12 | > 100 | > 100 | > 100 | > 100 | > 100 | > 100 | > 100 | > 100 | > 100 | > 100 | > 100 | 
O=C(Sc1c(-c2ccccc2)c(=O)n(-c2ccccc2)c(=S)n1-c1ccccc1)c1cccs1 | > 100 | > 100 | > 100 | > 100 | > 100 | > 100 | > 100 | 97.8 | > 100 | > 100 | > 100 | 
CN1CN(c2ccccc2)C2(CCN(CCCCCCF)CC2)C1=O | > 100 | > 100 | > 100 | > 100 | 94.2 | > 100 | 40.3 | > 100 | > 100 | 47.3 | > 100 | 
OCC(CCc1ccccc1I)C1=CCC2(CC1)OCCO2 (centres undefined) | 33.6 | 50 | > 100 | 43.1 | 41.1 | > 100 | 48 | 35.7 | 52.5 | 34.6 | 52 | 
COC(=O)[C@@](C)(COC(=O)C(C)(C)C)NC(=O)OC(C)(C)C | > 100 | > 100 | > 100 | > 100 | > 100 | > 100 | > 100 | > 100 | > 100 | > 100 | > 100 | 
Nc1nccc(NCC2(CO)CCC2)n1 | > 100 | > 100 | > 100 | > 100 | > 100 | > 100 | > 100 | > 100 | > 100 | > 100 | > 100 | 
CCOC(=O)C(NC(=O)CC)(Nc1ccc(S(=O)(=O)Nc2onc(C)c2C)cc1)C(F)(F)F (centres undefined) | > 100 | > 100 | > 100 | > 100 | > 100 | > 100 | > 100 | > 100 | > 100 | > 100 | > 100 | 
COc1ccccc1N=Nc1c(O)c(S(=O)(=O)O)cc2cc(S(=O)(=O)O)ccc12 | > 100 | > 100 | > 100 | > 100 | > 100 | > 100 | > 100 | > 100 | > 100 | > 100 | > 100 | 
Cc1ccc(S(=O)(=O)[C@@H](Cl)[C@H]2N=C(Cl)NN=C2c2ccccc2)cc1 | 41.7 | 38.8 | > 100 | 44.6 | 35.7 | > 100 | 50.8 | 75 | 39.5 | 75 | 97.4 | 
O=C(O)CC[P+](c1ccccc1)(c1ccccc1)c1ccccc1 | > 100 | > 100 | > 100 | > 100 | > 100 | > 100 | > 100 | > 100 | > 100 | 27.4 | > 100 | 
